The values that follow are results of earlier work, collected in patent US20200245666A1, “CANNABINOID EMULSIONS, BEVERAGES AND FOODS” (Lighthouse Strategies, LLC, priority 2019, published 2020).

For this data set the following is noted: smoking a 3.55% THC cigarette.

In the case of `CCCCCc1cc(O)c2c(c1)OC(C)(C)[C@@H]1CCC(C)=C[C@@H]21` [THC, Δ9-tetrahydrocannabinol], the peak plasma level was 152 ± 86.3 ng/mL and the “time of peak plasma level after inhalation” value is listed as “approximately 10 minutes”.
